From patent publication US9913843B2, “Protein kinase C inhibitors and uses thereof” (Rigel Pharmaceuticals, Inc., priority 2012, dated 2018)
Like-named read-outs stand apart in the source and are kept apart here.

Test system: PKC mediated IL-2 production in human primary T cells
Assay: IL-2 ELISA, human primary T cell, anti CD3+CD28+ (whole cell functional assay for PKC mediated IL-2 production)
Format: cell-based
Procedure: Human primary T cells were prepared as follows. Fresh PBMC's from All Cells (Cat # PB002) were re-suspended in RPMI (RPMI-1640 with L-Glutamine; Mediatech, Inc., Herndon Va., cat. #10-040-CM) with 10% FBS and seeded into flasks and incubated at 37° C. for 2 hours to allow the monocytes to adhere. The non-adherent cells were then centrifuged and re-suspended in RPMI medium containing 40 U/ml IL2 and seeded into a flask pre-coated with 1 μg/ml aCD3 and 5 ug/ml aCD28 (Anti-Human CD3, BD Pharmingen Catalog #555336, Anti-Human CD28, Beckman Coulter Catalog #IM1376). The cells were stimulated for 3-4 days, then transferred to a fresh flask and maintained in RPMI (RPMI-1640 with L-Glutamine; Mediatech, Inc., Herndon Va., cat. #10-040-CM) with 10% FBS and 40 U/ml IL-2.
Human primary T cells (100,000 cells per well) were pre-incubated with or without test compound in RPMI-1640 with L-Glutamine and 10% FBS for 1 hour at 37° C. Cells were then stimulated by transferring them to round-bottom 96-well plates pre-coated with 1 μg/ml aCD3 and 5 μg/ml aCD28. For counter assay, cells were instead stimulated by adding 8× stock solutions of PMA and ionomycin in RPMI-1640 with L-Glutamine and 10% FBS (for final concentrations of 0.5 ng/ml PMA and 0.1 μM ionomycin, both from Calbiochem). Cells were incubated at 37° C. for 24 hours before 100 μL supernatants were harvested for quantification of IL-2 by ELISA using Human IL-2 Duoset ELISA Kit from R and D Systems, Cat. # DY202E.
Compounds 1-156 were tested in a whole cell functional assay for PKC mediated IL-2 production as follows. Human primary T cell isolation and culture: Human primary T cells were prepared as follows. Whole blood was obtained from a healthy volunteer, mixed 1:1 with PBS, layered on to Ficoll Hypaque (Amersham Pharmacia Biotech, Piscataway, N.J., Catalog #17-1440-03) in 2:1 blood/PBS:ficoll ratio and centrifuged for 30 minutes at 4° C. at 1750 rpm. The cells at the serum: ficoll interface were recovered and washed twice with 5 volumes of PBS. These freshly isolated human peripheral blood mononuclear cells were cultured in Yssel's medium containing 40 U/ml IL2 in a flask pre-coated with 1 μg/ml aCD3 and 5 μg/ml aCD28 (Anti-Human CD3, BD Pharmingen Catalog #555336, Anti-Human CD28, Beckman Coulter Catalog #IM1376). The cells were stimulated for 3-4 days, then transferred to a fresh flask and maintained in RPMI (RPMI-1640 with L-Glutamine; Mediatech, Inc., Herndon Va., cat. #10-040-CM) with 10% FBS and 40 U/ml IL-2. The primary T-cells were then washed twice with PBS to remove the IL-2.
Primary T cell stimulation and IL2 ELISA: Human primary T cells (100,000 cells per well) were pre-incubated with or without test compound in Yssel's medium for 1 hour at 37° C. Cells were then stimulated by transferring them to round-bottom 96-well plates pre-coated with 1 μg/ml aCD3 and 5 μg/ml αCD28. For counter assay, cells were instead stimulated by adding 8× stock solutions of PMA and ionomycin in Yssels (for final concentrations of 0.5 ng/ml PMA and 0.1 uM ionomycin, both from Calbiochem). Cells were incubated at 37° C. for 24 hours before 100 μL supernatants were harvested for quantification of IL-2 by ELISA using Human IL-2 Duoset ELISA Kit from R and D Systems, Cat. # DY202E.

[1] = 24 h, human primary T cells stimulated with anti-CD3 + anti-CD28, IL-2 by ELISA, read-out: IC50 for blocking IL-2 production
[2] = human primary T cells stimulated with anti-CD3 + anti-CD28, 24 h, IL-2 by ELISA, 8 pt, read-out: IL2 ELISA, Human primary T cell, anti-CD3 + CD28, 8 pt (IC50)

SMILES	IC50 [1] [nM]	IC50 [2] [nM]
COc1ccc(Nc2ncc(F)c(NC[C@@H]3CCCN4CCCC[C@H]34)n2)cc1-c1cnco1 [Compound 22, 5-fluoro-N4-(((1S,9aR)-octahydro-1H-quinolizin-1-yl)methyl)-N2-(4-methoxy-3-(oxazol-5-yl)phenyl)pyrimidine-2,4-diamine]	< 30000	697
Cc1nnnn1-c1cc(Nc2ncc(F)c(NC[C@@H]3CCCN4CCCC[C@H]34)n2)c(F)cc1C1CC1 [Compound 23, N2-(4-cyclopropyl-2-fluoro-5-(5-methyl-1H-tetrazol-1-yl)phenyl)-5-fluoro-N4-(((1S,9aR)-octahydro-1H-quinolizin-1-yl)methyl)pyrimidine-2,4-diamine]	< 30000	66.3
O=S1(=O)CCCN1c1cc(Nc2ncc(F)c(NC[C@@H]3CCCN4CCCC[C@H]34)n2)ccc1F [Compound 24, N2-[3-(1,1-dioxo-isothiazolidin-2-yl)-4-fluoro-phenyl]-5-fluoro-N4-(((1S,9aR)-octahydro-1H-quinolizin-1-yl)methyl)-pyrimidine-2,4-diamine]	< 30000	3450
CC1(C)Oc2cc(Nc3ncc(F)c(NC[C@@H]4CCCN5CCCC[C@H]45)n3)ccc2N(CCCF)C1=O [Compound 25, 7-(4-(((1S,9aR)-octahydro-1H-quinolizin-1-yl)methylamino)-5-fluoropyrimidin-2-ylamino)-4-(3-fluoropropyl)-2,2-dimethyl-2H-benzo[b][1,4]oxazin-3(4H)-one]	< 30000	853
O=C1COc2cc(Nc3ncc(F)c(NC[C@@H]4CCCN5CCCC[C@H]45)n3)ccc2N1CC1CC1 [Compound 26, 7-(4-(((1S,9aR)-octahydro-1H-quinolizin-1-yl)methylamino)-5-fluoropyrimidin-2-ylamino)-4-(cyclopropylmethyl)-2H-benzo[b][1,4]oxazin-3(4H)-one]	< 30000	169
CCN1C(=O)C(F)(F)Oc2cc(Nc3ncc(F)c(NC[C@@H]4CCCN5CCCC[C@H]45)n3)cnc21 [Compound 27, 7-(4-(((1S,9aR)-octahydro-1H-quinolizin-1-yl)methylamino)-5-fluoropyrimidin-2-ylamino)-4-ethyl-2,2-difluoro-2H-pyrido[3,2-b][1,4]oxazin-3(4H)-one]	< 30000	652
Cn1nnnc1Oc1cc(Nc2ncc(F)c(NC[C@@H]3CCCN4CCCC[C@H]34)n2)c(F)cc1C1CC1 [Compound 28, N2-(5-(1-methyl-1H-tetrazol-5-yloxy)-4-cyclopropyl-2-fluorophenyl)-5-fluoro-N4-(((1S,9aR)-octahydro-1H-quinolizin-1-yl)methyl)pyrimidine-2,4-diamine]	< 30000	1820
Fc1ccc(S(F)(F)(F)(F)F)cc1Nc1ncc(F)c(NC[C@@H]2CCCN3CCCC[C@H]23)n1 [Compound 29, 5-fluoro-N2-(3-pentafluorosulfanyl-6-fluoro-phenyl)-N4-(((1S,9aR)-octahydro-1H-quinolizin-1-yl)methyl)pyrimidine-2,4-diamine]	< 30000	1800
Fc1cc(Nc2ncc(F)c(NC[C@@H]3CCCN4CCCC[C@H]34)n2)cc(S(F)(F)(F)(F)F)c1 [Compound 30, 5-fluoro-N2-(3-pentafluorosulfanyl-5-fluoro-phenyl)-N4-(((1S,9aR)-octahydro-1H-quinolizin-1-yl)methyl)pyrimidine-2,4-diamine]	< 30000	672
CC1(C)Oc2cc(Nc3ncc(F)c(NC[C@@H]4CCCN5CCCC[C@H]45)n3)cnc2N(CC2CC2)C1=O [Compound 31, 7-(4-(((1S,9aR)-octahydro-1H-quinolizin-1-yl)methylamino)-5-fluoropyrimidin-2-ylamino)-4-(cyclopropylmethyl)-2,2-dimethyl-2H-pyrido[3,2-b][1,4]oxazin-3(4H)-one]	< 30000	359
Fc1cc(C2CC2)c(-n2cnnn2)cc1Nc1ncc(Cl)c(NC[C@@H]2CCCN3CCCC[C@H]23)n1 [Compound 32, 5-chloro-N2-(4-cyclopropyl-2-fluoro-5-(1H-tetrazol-1-yl)phenyl)-N4-(((1S,9aR)-octahydro-1H-quinolizin-1-yl)methyl)pyrimidine-2,4-diamine]	< 30000	159
Cc1ccc(Nc2ncc(Cl)c(NC[C@@H]3CCCN4CCCC[C@H]34)n2)cc1-n1cnnn1 [Compound 33, 5-chloro-N4-(((1S,9aR)-octahydro-1H-quinolizin-1-yl)methyl)-N2-(4-methyl-3-(1H-tetrazol-1-yl)phenyl)pyrimidine-2,4-diamine]	< 30000	117
Cn1nnn(-c2cc(Nc3ncc(Cl)c(NC[C@@H]4CCCN5CCCC[C@H]45)n3)c(F)cc2C2CC2)c1=O [Compound 34, 1-(5-(4-(((1S,9aR)-octahydro-1H-quinolizin-1-yl)methylamino)-5-chloropyrimidin-2-ylamino)-2-cyclopropyl-4-fluorophenyl)-4-methyl-1H-tetrazol-5(4H)-one]	< 30000	670
Cc1nnnn1-c1cc(Nc2ncc(Cl)c(NC[C@@H]3CCCN4CCCC[C@H]34)n2)ccc1F [Compound 35, 5-chloro-N2-(4-fluoro-3-(5-methyl-1H-tetrazol-1-yl)phenyl)-N4-(((1S,9aR)-octahydro-1H-quinolizin-1-yl)methyl)pyrimidine-2,4-diamine]	< 30000	54.2
Cc1nnnn1-c1ccc(F)c(Nc2ncc(Cl)c(NC[C@@H]3CCCN4CCCC[C@H]34)n2)c1 [Compound 36, 5-chloro-N2-(2-fluoro-5-(5-methyl-1H-tetrazol-1-yl)phenyl)-N4-(((1S,9aR)-octahydro-1H-quinolizin-1-yl)methyl)pyrimidine-2,4-diamine]	< 30000	112
COc1ccc(Nc2ncc(Cl)c(NC[C@@H]3CCCN4CCCC[C@H]34)n2)cc1-n1nnnc1C [Compound 37, 5-chloro-N4-(((1S,9aR)-octahydro-1H-quinolizin-1-yl)methyl)-N2-(4-methoxy-3-(5-methyl-1H-tetrazol-1-yl)phenyl)pyrimidine-2,4-diamine]	< 30000	87.2
COc1cc(Nc2ncc(Cl)c(NC[C@@H]3CCCN4CCCC[C@H]34)n2)cc(-n2nnnc2C)c1 [Compound 38, 5-chloro-N4-(((1S,9aR)-octahydro-1H-quinolizin-1-yl)methyl)-N2-(3-methoxy-5-(5-methyl-1H-tetrazol-1-yl)phenyl)pyrimidine-2,4-diamine]	< 30000	126
N#Cc1cccc(Nc2ncc(Cl)c(NC[C@@H]3CCCN4CCCC[C@H]34)n2)c1 [Compound 39, 3-(4-(((1S,9aR)-octahydro-1H-quinolizin-1-yl)methylamino)-5-chloropyrimidin-2-ylamino)benzonitrile]	< 30000	418
Cc1ccc(Nc2ncc(Cl)c(NC[C@@H]3CCCN4CCCC[C@H]34)n2)cc1C#N [Compound 40, 5-(4-(((1S,9aR)-octahydro-1H-quinolizin-1-yl)methylamino)-5-chloropyrimidin-2-ylamino)-2-methylbenzonitrile]	< 30000	267
N#Cc1cc(Nc2ncc(Cl)c(NC[C@@H]3CCCN4CCCC[C@H]34)n2)ccc1C1CC1 [Compound 41, 5-(4-(((1S,9aR)-octahydro-1H-quinolizin-1-yl)methylamino)-5-chloropyrimidin-2-ylamino)-2-cyclopropylbenzonitrile]	< 30000	72.3
